Values of other authors in patent publication US10947168B2, “Solvent systems for dicyandiamide and/or alkyl thiophosphoric triamide and use in agricultural applications” (RHODIA OPERATIONS, priority 2014, dated 2021).

## N#CNC(=N)N [Dicyandiamide]
  solubility in water: about 41 g/l
